Where a SMILES comes first, the peptide text is derived from it. Bridges are numbered along the chain shown (N, C = ends). [ ]: non-standard residue; d: D form. The star is where a group is joined. 2Nal = N[C@@H](Cc1ccc2ccccc2c1)C(=O)O; Benzoyl(4-F) = O=C(c1ccc(F)cc1)*; Cit = NC(=O)NCCC[C@H](N)C(=O)O
Experiments:
[1] = test system: MV4-11 cells engrafted in NOD SCID gamma (NSG) mice; assay: AML model of NSG mice engrafted with MV4-11 cells; type: in vivo, mouse; settings: AC220 10 mg/Kg oral, daily for 7 days; for AML cells in the BM / percentage of alive AML blasts in the blood / level of AML cells in the spleen: BL-8040 400 ug/mouse SC; for AML cells in the BM: control 12.6%, FIGS. 11A-11B; for percentage of alive AML blasts in the blood: control 13.5%, FIG. 9; for level of AML cells in the spleen: control 21%, FIGS. 12A-12B
Description: In the in-vivo study an AML model of NOD SCID gamma (NSG) mice engrafted with MV4-11 cells was used. […] The survival and apoptosis of AML cells were examined in the blood, BM and spleen of engrafted mice.
Female mice at the age of 7-9 weeks day (−1) 26/1/14: mice were irradiated with 200 rad 24 hr before cells injection day 0-27/1/14: mice were IV injected with 10×10^6 of MV4-11 cells in total volume of 200 ul PBS.

[2] = test system: human primary AML cells with wild-type FLT3; assay: Survival assay (PI staining, FACS), human primary AML cells with FLT3-WT; type: cell-based; settings: 48 hr; for decrease of the number of viable cells: human
Excerpt: (§1) Human primary AML cells with FLT3-ITD mutation and with FLT3-WT were obtained from AML patients after getting their consent in accordance with regulations of Chaim Sheba Medical Center (Tel-Aviv, Israel). Peripheral blood mononuclear cells (PBMCs) were separated from blood samples by density-gradient centrifugation on Ficoll-Paque (Pharmacia Biotech, Uppsala, Sweden). The cells were suspended in […] (FCS; Biological Industries, Kibbutz Beit Haemek, Israel), supplement with 10% DMSO then stored in liquid nitrogen. Prior to commencing a toxicity assay the isolated cells were thawed, re-suspended in Roswell Park Memorial Institute medium (RPMI 1640; Gibco BRL life technologies) supplemented with 20% FCS and incubated for 4 hr at 37° C. Isolated cells with FLT3-ITD mutation or with FLT3 wild type (FLT3-WT) were identified by using a procedure essentially as described by Levis and Small (Leukemia 17: 1738-1752, 2003). […] Following incubation the cells were stained with propidium iodide (PI; Sigma, St. Louis, Mo.; 1:1000) and the incidence of dead cells (% PI-positive) and the density of viable cells (PI-negative) were determined by FACScalibur using the procedure described by Beider and Begin (Exp Hematol 39: 282-92, 2011).

[3] = test system: human AML MV4-11 cells (FLT3-ITD); assay: Example 2 in-vitro viability and apoptosis by FACS; type: cell-based; settings: BL-8040 20 μM, 48 hrs
Description: Methods: The human AML MV4-11 cells (FLT3-ITD) was used. Cells were in-vitro incubated for 48 hrs in the presence of BL-8040 (20 μM), AC220 (50 nM) or their combination. The level of viable cells, percentage of apoptosis was evaluated by FACS.

[4] = test system: human primary AML cells with FLT3-ITD; assay: Survival assay (PI staining, FACS), human primary AML cells with FLT3-ITD; type: cell-based; settings: 48 hr; for decrease of the number of viable cells: human
Excerpt: as §1

[5] = test system: human AML xenografts; settings: subcutaneous injections; Beider et al., Exp. Hematol. 2011; cited from earlier work
[6] = test system: malignant cells of hematopoietic origin including AML; settings: cited from earlier work

Compound | reduction of total mouse WBC compared to the control ([1]; FIG. 10) [%] | AML cells in the BM [1] [%] | percentage of alive AML blasts in the blood [1] [%] | level of AML cells in the spleen [1] [%] | increase of the percentage of dead cells ([2]; BL-8040 8 μM, FIG. 2A) [%] | increase of the percentage of dead cells ([2]; BL-8040 20 μM, FIG. 8A) [%] | decrease of the number of viable cells ([2]; 8 μM) [%] | decrease of the number of viable cells ([2]; 20 μM) [%] | inhibition of cell growth [3] [%] | cell death ([3]; AC220 50 nM or their combination) [%] | increase of the percentage of dead cells ([4]; BL-8040 8 μM, FIG. 1A) [%] | increase of the percentage of dead cells ([4]; BL-8040 20 μM, FIG. 7A) [%] | decrease of the number of viable cells ([4]; 8 μM) [%] | decrease of the number of viable cells ([4]; 20 μM) [%] | growth of human AML xenografts [5] | cytotoxicity toward malignant cells of hematopoietic origin [6]
CC(C)(C)c1cc(NC(=O)Nc2ccc(-c3cn4c(n3)sc3cc(OCCN5CCOCC5)ccc34)cc2)no1 [AC220, Quizartinib] | 65 | 0.05 | 0.1 | 0.09 |  |  |  |  |  |  |  |  |  |  |  | 
N=C(N)NCCC[C@H](NC(=O)[C@@H]1CSSC[C@H](NC(=O)[C@H](Cc2ccc3ccccc3c2)NC(=O)[C@H](CCCNC(=N)N)NC(=O)[C@H](CCCNC(=N)N)NC(=O)c2ccc(F)cc2)C(=O)N[C@@H](Cc2ccc(O)cc2)C(=O)N[C@@H](CCCNC(N)=O)C(=O)N[C@@H](CCCCN)C(=O)N[C@H](CCCCN)C(=O)N2CCC[C@H]2C(=O)N[C@@H](Cc2ccc(O)cc2)C(=O)N[C@@H](CCCNC(=N)N)C(=O)N[C@@H](CCCNC(N)=O)C(=O)N1)C(N)=O [BL-8040, 4F-benzoyl-Arg-Arg-Nal-Cys-Tyr-Cit-Lys-DLys-Pro-Tyr-Arg-Cit-Cys-Arg-NH2] ({Benzoyl(4-F)}-RR[2Nal]CY[Cit]K[dK]PYR[Cit]CR-NH2; disulfide 4-13) |  | 2.6 | 1.7 | 0.4 | 13.7 | 56.3 | 16.1 | 34.4 | 35 | 40 | 79.3 | 116.6 | 28.8 | 50.0 | significantly reduced the growth | CXCR4-dependent preferential cytotoxicity

From US20190038703A1, “METHODS OF TREATING ACUTE MYELOID LEUKEMIA WITH A FLT3 MUTATION” (Biokine Therapeutics Ltd., priority 2013, published 2019)
